Measurements reported in ChEMBL document CHEMBL3758169, “4-Aminoindazolyl-dihydrofuro[3,4-d]pyrimidines as non-covalent inhibitors of mutant epidermal growth factor receptor tyrosine kinase” (Bioorg Med Chem Lett, 2016).

How the values were obtained:
[1] = molecular target: MAP kinase-activated protein kinase 3 (Homo sapiens) (UniProt Q16644); assay: Inhibition of MAPKAPK3 (unknown origin) at 100 nM
[2] = molecular target: Serine/threonine-protein kinase MARK1 (Homo sapiens) (UniProt Q9P0L2); assay: Inhibition of MARK1 (unknown origin) at 100 nM
[3] = molecular target: Serine/threonine-protein kinase MARK2 (Homo sapiens) (UniProt Q7KZI7); assay: Inhibition of MARK2 (unknown origin) at 100 nM
Chain of Serine/threonine-protein kinase MARK2 (Homo sapiens) (Q7KZI7 whole entry): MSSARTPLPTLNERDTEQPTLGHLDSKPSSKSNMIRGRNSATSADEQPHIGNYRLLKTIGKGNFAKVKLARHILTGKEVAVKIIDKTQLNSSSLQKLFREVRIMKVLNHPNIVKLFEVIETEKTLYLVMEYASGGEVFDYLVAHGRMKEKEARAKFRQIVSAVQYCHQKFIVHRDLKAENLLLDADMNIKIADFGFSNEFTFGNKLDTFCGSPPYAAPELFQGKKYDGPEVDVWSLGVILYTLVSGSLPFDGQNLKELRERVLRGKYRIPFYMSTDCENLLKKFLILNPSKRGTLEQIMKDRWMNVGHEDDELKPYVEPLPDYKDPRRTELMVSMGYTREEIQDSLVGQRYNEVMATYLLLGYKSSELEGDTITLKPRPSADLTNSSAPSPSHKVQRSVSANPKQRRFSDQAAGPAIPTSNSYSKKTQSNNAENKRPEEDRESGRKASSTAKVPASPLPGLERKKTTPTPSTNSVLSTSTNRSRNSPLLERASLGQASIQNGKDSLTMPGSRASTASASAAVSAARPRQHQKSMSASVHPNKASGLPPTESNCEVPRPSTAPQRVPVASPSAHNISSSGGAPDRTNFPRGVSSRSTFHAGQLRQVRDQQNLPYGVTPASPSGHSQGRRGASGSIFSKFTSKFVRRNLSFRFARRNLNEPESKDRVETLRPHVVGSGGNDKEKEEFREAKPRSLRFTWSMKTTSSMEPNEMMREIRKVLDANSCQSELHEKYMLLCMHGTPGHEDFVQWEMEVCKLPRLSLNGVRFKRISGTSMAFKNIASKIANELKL

[4] = molecular target: MAP/microtubule affinity-regulating kinase 4 (Homo sapiens) (UniProt Q96L34); assay: Inhibition of MARK4 (unknown origin) at 100 nM
Homo sapiens [5] = species on record: Homo sapiens; assay: Inhibition of MKK6 S207E/T211E double mutant (unknown origin) at 100 nM
[6] = molecular target: Mitogen-activated protein kinase kinase kinase 10 (Homo sapiens) (UniProt Q02779); assay: Inhibition of MLK2 (unknown origin) at 100 nM
[7] = molecular target: Serine/threonine-protein kinase 26 (Homo sapiens) (UniProt Q9P289); assay: Inhibition of MST4 (unknown origin) at 100 nM
[8] = molecular target: Tyrosine-protein kinase Mer (Homo sapiens) (UniProt Q12866); assay: Inhibition of MER (unknown origin) at 100 nM
Homo sapiens [9] = species on record: Homo sapiens; assay: Inhibition of MET I250T mutant (unknown origin) at 100 nM
[10] = molecular target: Phosphatidylinositol 4,5-bisphosphate 3-kinase catalytic subunit delta isoform (Homo sapiens) (UniProt O00329); assay: Inhibition of PI3KD (unknown origin) at 100 nM
[11] = molecular target: Phosphatidylinositol 4,5-bisphosphate 3-kinase catalytic subunit gamma isoform (Homo sapiens) (UniProt P48736); assay: Inhibition of PI3KG (unknown origin) at 100 nM
[12] = molecular target: Serine/threonine-protein kinase pim-1 (Homo sapiens) (UniProt P11309); assay: Inhibition of PIM1 (unknown origin) at 100 nM
[13] = molecular target: Protein kinase C zeta type (Homo sapiens) (UniProt Q05513); assay: Inhibition of PKCzeta (unknown origin) at 100 nM
[14] = molecular target: Serine/threonine-protein kinase D2 (Homo sapiens) (UniProt Q9BZL6); assay: Inhibition of PKD2 (unknown origin) at 100 nM
[15] = molecular target: cGMP-dependent protein kinase 1 (Homo sapiens) (UniProt Q13976); assay: Inhibition of PKG1alpha (unknown origin) at 100 nM
Chain of cGMP-dependent protein kinase 1 (Homo sapiens) (Q13976 whole entry): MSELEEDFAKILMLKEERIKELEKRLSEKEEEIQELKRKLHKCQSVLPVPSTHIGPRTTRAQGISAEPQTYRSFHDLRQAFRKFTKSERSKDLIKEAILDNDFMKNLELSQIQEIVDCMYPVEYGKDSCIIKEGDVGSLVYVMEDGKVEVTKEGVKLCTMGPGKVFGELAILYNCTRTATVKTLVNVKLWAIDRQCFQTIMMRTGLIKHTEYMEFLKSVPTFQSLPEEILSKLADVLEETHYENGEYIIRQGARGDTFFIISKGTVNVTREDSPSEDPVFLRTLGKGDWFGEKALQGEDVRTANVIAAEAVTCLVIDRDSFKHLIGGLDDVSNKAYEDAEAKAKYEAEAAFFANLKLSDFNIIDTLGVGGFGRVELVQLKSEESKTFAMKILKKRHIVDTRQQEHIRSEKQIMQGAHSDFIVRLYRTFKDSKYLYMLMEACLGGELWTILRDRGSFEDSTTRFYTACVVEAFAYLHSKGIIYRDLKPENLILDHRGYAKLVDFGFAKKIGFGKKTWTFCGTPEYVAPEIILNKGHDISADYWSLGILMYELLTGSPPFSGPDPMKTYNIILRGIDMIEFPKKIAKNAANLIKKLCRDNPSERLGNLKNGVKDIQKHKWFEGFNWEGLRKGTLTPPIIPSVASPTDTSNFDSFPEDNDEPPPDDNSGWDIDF

[16] = molecular target: Serine/threonine-protein kinase N1 (Homo sapiens) (UniProt Q16512); assay: Inhibition of PRK1 (unknown origin) at 100 nM
[17] = molecular target: Proto-oncogene tyrosine-protein kinase receptor Ret (Homo sapiens) (UniProt P07949); assay: Inhibition of RET (unknown origin) at 100 nM
[18] = molecular target: SRSF protein kinase 1 (Homo sapiens) (UniProt Q96SB4); assay: Inhibition of SRPK1 (unknown origin) at 100 nM
Homo sapiens [19] = species on record: Homo sapiens; assay: Inhibition of SRM (unknown origin) at 100 nM
[20] = molecular target: Tyrosine-protein kinase TXK (Homo sapiens) (UniProt P42681); assay: Inhibition of TXK (unknown origin) at 100 nM
[21] = molecular target: Angiopoietin-1 receptor (Homo sapiens) (UniProt Q02763); assay: Inhibition of TIE2 (unknown origin) at 100 nM
[22] = molecular target: Wee1-like protein kinase (Homo sapiens) (UniProt P30291); assay: Inhibition of WEE1 (unknown origin) at 100 nM
[23] = molecular target: Serine/threonine-protein kinase WNK2 (Homo sapiens) (UniProt Q9Y3S1); assay: Inhibition of WNK2 (unknown origin) at 100 nM
[24] = molecular target: Mitogen-activated protein kinase kinase kinase 20 (Homo sapiens) (UniProt Q9NYL2); assay: Inhibition of ZAK (unknown origin) at 100 nM
[25] = molecular target: Megakaryocyte-associated tyrosine-protein kinase (Homo sapiens) (UniProt P42679); assay: Inhibition of Hyl (unknown origin) at 100 nM
[26] = molecular target: Activin receptor type-1 (Homo sapiens) (UniProt Q04771); assay: Inhibition of ALK2 (unknown origin) at 100 nM
[27] = molecular target: NUAK family SNF1-like kinase 1 (Homo sapiens) (UniProt O60285); assay: Inhibition of ARK5 (unknown origin) at 100 nM
Chain of NUAK family SNF1-like kinase 1 (Homo sapiens) (O60285 whole entry): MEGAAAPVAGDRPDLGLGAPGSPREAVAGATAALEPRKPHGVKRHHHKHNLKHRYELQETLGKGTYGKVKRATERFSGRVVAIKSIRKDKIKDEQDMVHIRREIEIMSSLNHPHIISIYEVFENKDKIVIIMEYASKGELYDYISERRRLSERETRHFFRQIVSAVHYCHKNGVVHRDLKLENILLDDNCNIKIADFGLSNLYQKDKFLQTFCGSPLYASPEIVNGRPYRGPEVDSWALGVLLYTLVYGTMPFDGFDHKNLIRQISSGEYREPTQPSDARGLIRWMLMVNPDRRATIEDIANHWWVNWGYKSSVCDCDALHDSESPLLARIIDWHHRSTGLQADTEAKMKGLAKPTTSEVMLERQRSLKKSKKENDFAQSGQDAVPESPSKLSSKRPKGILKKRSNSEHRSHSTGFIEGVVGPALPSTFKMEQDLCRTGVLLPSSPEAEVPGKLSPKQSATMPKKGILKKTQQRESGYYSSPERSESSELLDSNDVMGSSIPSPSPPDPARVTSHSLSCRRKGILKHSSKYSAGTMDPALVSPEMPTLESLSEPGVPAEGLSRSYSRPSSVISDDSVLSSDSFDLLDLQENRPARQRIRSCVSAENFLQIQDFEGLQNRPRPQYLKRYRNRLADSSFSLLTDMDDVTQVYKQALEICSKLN

[28] = molecular target: Tyrosine-protein kinase Blk (Homo sapiens) (UniProt P51451); assay: Inhibition of BLK (unknown origin) at 100 nM
[29] = molecular target: CDK9/Cyclin K (Homo sapiens) (UniProt P50750+O75909); assay: Inhibition of CDK9/cyclinK (unknown origin) at 100 nM; format: protein-complex assay
[30] = molecular target: Casein kinase I isoform gamma-3 (Homo sapiens) (UniProt Q9Y6M4); assay: Inhibition of CK1gamma3 (unknown origin) at 100 nM
[31] = molecular target: Dual specificity protein kinase CLK2 (Homo sapiens) (UniProt P49760); assay: Inhibition of CLK2 (unknown origin) at 100 nM
Chain of Dual specificity protein kinase CLK2 (Homo sapiens) (P49760 whole entry, looked up): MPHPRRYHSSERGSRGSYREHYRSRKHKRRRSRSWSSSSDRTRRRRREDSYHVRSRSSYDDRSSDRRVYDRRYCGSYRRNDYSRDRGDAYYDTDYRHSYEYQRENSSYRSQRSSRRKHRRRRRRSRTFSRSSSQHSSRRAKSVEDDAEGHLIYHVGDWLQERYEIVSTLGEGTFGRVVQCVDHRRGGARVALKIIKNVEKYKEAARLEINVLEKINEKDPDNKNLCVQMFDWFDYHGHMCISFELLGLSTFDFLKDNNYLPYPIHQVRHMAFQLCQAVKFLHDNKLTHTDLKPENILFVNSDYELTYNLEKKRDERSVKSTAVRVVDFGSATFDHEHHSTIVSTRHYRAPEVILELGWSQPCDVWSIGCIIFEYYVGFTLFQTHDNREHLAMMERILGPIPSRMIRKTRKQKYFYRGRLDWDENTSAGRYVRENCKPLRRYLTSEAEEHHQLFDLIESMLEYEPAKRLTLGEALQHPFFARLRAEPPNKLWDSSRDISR

[32] = molecular target: Calcium/calmodulin-dependent protein kinase type 1D (Homo sapiens) (UniProt Q8IU85); assay: Inhibition of CaMKIdelta (unknown origin) at 100 nM
Chain of Calcium/calmodulin-dependent protein kinase type 1D (Homo sapiens) (Q8IU85 whole entry, looked up, the tested form may be a part): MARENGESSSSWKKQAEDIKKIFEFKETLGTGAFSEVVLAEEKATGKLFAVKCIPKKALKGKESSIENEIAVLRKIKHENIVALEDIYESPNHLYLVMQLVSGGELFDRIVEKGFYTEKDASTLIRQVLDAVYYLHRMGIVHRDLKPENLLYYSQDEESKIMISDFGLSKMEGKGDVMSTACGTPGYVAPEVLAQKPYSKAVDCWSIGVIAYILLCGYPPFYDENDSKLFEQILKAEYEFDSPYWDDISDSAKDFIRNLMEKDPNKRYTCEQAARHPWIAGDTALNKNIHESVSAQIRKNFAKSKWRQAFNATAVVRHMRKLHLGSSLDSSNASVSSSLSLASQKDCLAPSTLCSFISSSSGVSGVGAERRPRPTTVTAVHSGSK

[33] = molecular target: Epithelial discoidin domain-containing receptor 1 (Homo sapiens) (UniProt Q08345); assay: Inhibition of DDR1 (unknown origin) at 100 nM
[34] = molecular target: Fibroblast growth factor receptor 2 (Homo sapiens) (UniProt P21802); assay: Inhibition of FGFR2 (unknown origin) at 100 nM
[35] = molecular target: Fibroblast growth factor receptor 4 (Homo sapiens) (UniProt P22455); assay: Inhibition of FGFR4 (unknown origin) at 100 nM
[36] = molecular target: Tyrosine-protein kinase Fes/Fps (Homo sapiens) (UniProt P07332); assay: Inhibition of FES (unknown origin) at 100 nM
[37] = tested on: Receptor-type tyrosine-protein kinase FLT3 (Homo sapiens), P36888 [D835Y]; assay: Inhibition of FLT3 D835Y mutant (unknown origin) at 100 nM
[38] = molecular target: G protein-coupled receptor kinase 6 (Homo sapiens) (UniProt P43250); assay: Inhibition of GRK6 (unknown origin) at 100 nM
[39] = tested on: Mast/stem cell growth factor receptor Kit (Homo sapiens), P10721 [T670I]; assay: Inhibition of KIT T670I mutant (unknown origin) at 100 nM
Chain of Mast/stem cell growth factor receptor Kit (Homo sapiens), P10721 [T670I] (P10721 whole entry T670I): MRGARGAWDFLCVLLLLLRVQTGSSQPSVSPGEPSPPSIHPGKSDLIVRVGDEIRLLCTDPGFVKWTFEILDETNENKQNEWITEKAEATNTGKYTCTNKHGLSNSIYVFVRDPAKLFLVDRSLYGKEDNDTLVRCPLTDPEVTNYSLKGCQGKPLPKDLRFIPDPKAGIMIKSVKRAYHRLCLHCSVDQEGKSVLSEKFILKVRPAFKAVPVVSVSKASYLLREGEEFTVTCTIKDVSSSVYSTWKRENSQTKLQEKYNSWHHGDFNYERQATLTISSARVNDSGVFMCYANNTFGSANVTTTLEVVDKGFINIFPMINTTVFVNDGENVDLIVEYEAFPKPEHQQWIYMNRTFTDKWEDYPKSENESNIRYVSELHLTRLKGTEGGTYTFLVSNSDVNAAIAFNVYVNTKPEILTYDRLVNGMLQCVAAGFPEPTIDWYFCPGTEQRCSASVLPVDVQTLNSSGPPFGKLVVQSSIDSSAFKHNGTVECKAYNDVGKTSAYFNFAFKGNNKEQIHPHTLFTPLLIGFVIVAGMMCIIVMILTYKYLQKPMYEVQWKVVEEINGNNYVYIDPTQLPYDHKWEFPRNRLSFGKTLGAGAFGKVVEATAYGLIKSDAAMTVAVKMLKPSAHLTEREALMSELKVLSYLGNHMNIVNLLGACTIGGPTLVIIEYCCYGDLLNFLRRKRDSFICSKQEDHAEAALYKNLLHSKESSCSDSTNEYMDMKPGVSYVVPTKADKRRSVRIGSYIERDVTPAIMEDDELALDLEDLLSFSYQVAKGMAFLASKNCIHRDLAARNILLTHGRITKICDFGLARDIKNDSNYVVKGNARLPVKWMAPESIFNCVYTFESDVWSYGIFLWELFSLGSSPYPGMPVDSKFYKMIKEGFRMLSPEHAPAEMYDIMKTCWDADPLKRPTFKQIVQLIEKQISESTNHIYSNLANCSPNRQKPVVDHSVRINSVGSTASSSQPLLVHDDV

[40] = tested on: Mast/stem cell growth factor receptor Kit (Homo sapiens), P10721 [V654A]; assay: Inhibition of KIT V654A mutant (unknown origin) at 100 nM
Chain of Mast/stem cell growth factor receptor Kit (Homo sapiens), P10721 [V654A] (P10721 whole entry V654A, the tested form may be a part): as the sequence (P10721 whole entry T670I) above, with V654A, I670T counted along it

[41] = molecular target: LIM domain kinase 2 (Homo sapiens) (UniProt P53671); assay: Inhibition of LIMK2 (unknown origin) at 100 nM
[42] = molecular target: Leukocyte tyrosine kinase receptor (Homo sapiens) (UniProt P29376); assay: Inhibition of LTK (unknown origin) at 100 nM
Chain of Leukocyte tyrosine kinase receptor (Homo sapiens) (P29376 whole entry): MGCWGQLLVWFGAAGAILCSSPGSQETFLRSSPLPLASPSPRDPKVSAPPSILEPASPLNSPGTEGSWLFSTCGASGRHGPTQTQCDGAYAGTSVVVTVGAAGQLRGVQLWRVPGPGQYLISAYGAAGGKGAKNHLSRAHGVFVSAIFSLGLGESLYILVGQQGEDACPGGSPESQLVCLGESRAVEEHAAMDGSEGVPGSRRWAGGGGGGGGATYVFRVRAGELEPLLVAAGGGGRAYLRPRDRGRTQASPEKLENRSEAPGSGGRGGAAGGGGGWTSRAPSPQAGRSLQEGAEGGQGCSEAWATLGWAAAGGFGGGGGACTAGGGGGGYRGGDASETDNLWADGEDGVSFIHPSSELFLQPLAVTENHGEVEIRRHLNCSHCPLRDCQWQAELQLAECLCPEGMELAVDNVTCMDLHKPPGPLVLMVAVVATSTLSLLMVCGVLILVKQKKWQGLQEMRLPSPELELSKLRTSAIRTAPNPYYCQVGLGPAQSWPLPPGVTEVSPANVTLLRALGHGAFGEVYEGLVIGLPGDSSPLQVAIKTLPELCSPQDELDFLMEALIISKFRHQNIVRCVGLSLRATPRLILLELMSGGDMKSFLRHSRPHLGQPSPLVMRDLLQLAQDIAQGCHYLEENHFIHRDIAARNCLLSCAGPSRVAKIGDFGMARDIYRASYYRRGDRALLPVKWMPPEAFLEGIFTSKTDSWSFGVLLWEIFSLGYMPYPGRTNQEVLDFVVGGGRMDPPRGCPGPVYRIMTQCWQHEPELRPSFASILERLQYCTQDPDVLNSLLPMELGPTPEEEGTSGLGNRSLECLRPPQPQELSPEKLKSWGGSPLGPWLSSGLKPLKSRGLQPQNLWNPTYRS

[43] = molecular target: Protein-tyrosine kinase 6 (Homo sapiens) (UniProt Q13882); assay: Inhibition of BRK (unknown origin) at 100 nM

SMILES: CC1(C)OCc2c(Nc3n[nH]c4ccccc34)nc(-c3cn[nH]c3)nc21
- inhibition [1]: 5.4%
- inhibition [2]: -1.8%
- inhibition [3]: -5.3%
- inhibition [4]: 2.5%
- inhibition (Homo sapiens [5]): 10.2%
- inhibition [6]: 2.3%
- inhibition [7]: 0.2%
- inhibition [8]: 6.3%
- inhibition (Homo sapiens [9]): 4%
- inhibition [10]: -7.6%
- inhibition [11]: 15.1%
- inhibition [12]: -7.1%
- inhibition [13]: 7.2%
- inhibition [14]: 7.8%
- inhibition [15]: 3.4%
- inhibition [16]: 3.7%
- inhibition [17]: 98.2%
- inhibition [18]: 3.9%
- inhibition (Homo sapiens [19]): 17.3%
- inhibition [20]: 61.5%
- inhibition [21]: -0.1%
- inhibition [22]: 36.1%
- inhibition [23]: 3.4%
- inhibition [24]: 11.4%
- inhibition [25]: 0.8%
- inhibition [26]: 30.3%
- inhibition [27]: 11.6%
- inhibition [28]: 67.7%
- inhibition [29]: -3.7%
- inhibition [30]: 1.8%
- inhibition [31]: -3.6%
- inhibition [32]: -5.3%
- inhibition [33]: 52.6%
- inhibition [34]: 54%
- inhibition [35]: 14.7%
- inhibition [36]: 6%
- inhibition [37]: 24.8%
- inhibition [38]: 1.6%
- inhibition [39]: 17.9%
- inhibition [40]: 1.1%
- inhibition [41]: -2.1%
- inhibition [42]: 32%
- inhibition [43]: 90.6%
